Source: US20250011307A1, “CRYSTALLINE FORMS OF BIARYL YAP/TAZ-TEAD PROTEIN-PROTEIN INTERACTION INHIBITORS” (Novartis AG, priority 2021, published 2025)
Counter-ions that a name gives are not always drawn.

Key:
Assay type in all cases: physicochemical
[1] = Solid state bulk stability stress test (HPLC degradation products, color, XRPD); parameters: key to CL color: A: No change; B: Slight discoloration; C: Medium discoloration; D: Strong discoloration
[2] = Hygroscopicity (loss on drying by TGA and XRPD, as is and after storage at 92% / 80% RH); conditions: for Loss on drying by TGA [%]: TGA temperature per cell: Modification A 110° C., amorphous 119° C., 4-hydroxybenzoate 200° C.
[3] = Excipient compatibility stress test (HPLC degradation products, color); parameters: key to CL color: A: No change; B: Slight discoloration; C: Medium discoloration; D: Strong discoloration; conditions: Compound B forms
[4] = Solubility after equilibration at 25° C. for 24 h, with final pH and XRPD of solid residues
[5] = Xenon light stress test of bulk (HPLC degradation products, color, XRPD); parameters: key to CL color: A: No change; B: Slight discoloration; C: Medium discoloration; D: Strong discoloration; conditions: Xenon light (1200 kLuxh, 25° C.)
Experimental: (§1) X-ray powder diffraction (XRPD) patterns were obtained using a Bruker Advance D8 in reflection geometry. Powders were analyzed using a zero background Si flat sample holder. The radiation used was Cu Kα (A=1.5418 Å). Patterns were measured between 2° and 40° 2theta. • Sample amount: 5-10 mg • Sample holder: zero background Si flat sample holder
as §1, with “radiation” for “radiation used”, “(λ=1.5418” for “(A=1.5418”

[6] = Compound B forms, 2 weeks 50° C./75% RH
[7] = Compound B forms, 2 weeks 80° C./11% RH
[8] = Compound B forms, 2 weeks 80° C./75% RH
[9] = 2 weeks 50° C./75% RH, 1% in HGC powder
[10] = 2 weeks 50° C./75% RH, 1% in HPMC powder
[11] = 2 weeks 50° C./closed, 1% in HGC powder
[12] = 2 weeks 50° C./closed, 1% in HPMC powder
[13] = Compound B forms, clear quartz vial
[14] = Compound A forms, 2 weeks 50° C./75% RH
[15] = Compound A forms, 2 weeks 80° C., 11% RH
[16] = Compound A forms, 2 weeks 80° C./75% RH
[17] = Compound A forms, After 1 day at 80% RH
[18] = Compound A forms, After 1 day at 92% RH

Compound: CNC[C@]1(c2ccccc2)Oc2cc(F)c(Cl)c(-c3c(C(N)=O)ccc(OC)c3F)c2[C@@H]1C [Compound B L-lactate salt, 2-((2S,3S,4S)-5-Chloro-6-fluoro-3-methyl-2-((methylamino)methyl)-2-phenyl-2,3-dihydrobenzofuran-4-yl)-3-fluoro-4-methoxybenzamide]
- Bulk (XRPD) [1, 6]: No change
- CL color [1, 6]: A
- DP[%] degradation products, Bulk (HPLC) [1, 6]: 0.33%
- Bulk (XRPD) [1, 7]: No change
- CL color [1, 7]: A
- DP[%] degradation products, Bulk (HPLC) [1, 7]: 0.31%
- Bulk (XRPD) [1, 8]: No change
- CL color [1, 8]: A
- DP[%] degradation products, Bulk (HPLC) [1, 8]: 2.11%
- XRPD ([2]; Compound B forms, After 1 day at 80% RH): No change
- Loss on drying by TGA ([2]; Compound B forms, After 1 day at 80% RH, @200° C.): 1.08%@200 °C
- XRPD ([2]; Compound B forms, After 1 day at 92% RH): No change
- Loss on drying by TGA ([2]; Compound B forms, After 1 day at 92% RH, TGA temperature per cell: free form @233° C., succinate @205° C., L-malate @200° C., L-lactate @200° C.): 1.18%@200 °C
- Loss on drying by TGA ([2]; Compound B forms, Hygroscopicity, As is, TGA temperature per cell: free form @233° C., succinate @205° C., L-malate @200° C., L-lactate @200° C.): 0.92%@200 °C
- CL color [3, 9]: A
- DP[%] degradation products [3, 9]: 0.44%
- CL color [3, 10]: A
- DP[%] degradation products [3, 10]: 0.42%
- CL color [3, 11]: A
- DP[%] degradation products [3, 11]: 0.22%
- CL color [3, 12]: A
- DP[%] degradation products [3, 12]: 0.33%
- final pH ([4]; Compound B forms, Blank FaSSIF): [6.53]
- final pH ([4]; Compound B forms, FaSSIF V2 pH 6.5): [6.48]
- final pH ([4]; Compound B forms, FeSSIF V2 pH 5.8): [5.79]
- final pH ([4]; Compound B forms, SGF pH 2.0): [2.24]
- final pH ([4]; Compound B forms, Water): [7.03]
- final pH ([4]; Compound B forms, pH 1.2, 100 mM HCl): [1.12]
- final pH ([4]; Compound B forms, pH 3.0, 50 mM citrate buffer): [3.06]
- final pH ([4]; Compound B forms, pH 4.7, 50 mM acetate buffer): [4.70]
- final pH ([4]; Compound B forms, pH 6.8, 50 mM phosphate buffer): [6.79]
- final pH ([4]; Compound B forms, pH 6.8, 50 mM phosphate buffer with 50 mM Na taurocholate): [6.58]
- Bulk amber vial (XRPD) ([5]; Compound B forms, amber vial): No change
- CL color ([5]; Compound B forms, amber vial): A
- DP[%] degradation products, Bulk amber vial (HPLC) ([5]; Compound B forms, amber vial): 0.17%
- Bulk clear quartz vial (XRPD) [5, 13]: No change
- CL color [5, 13]: B
- DP[%] degradation products, Bulk clear quartz vial (HPLC) [5, 13]: 0.38%

Compound: CNC(=O)c1cnc(OCCO)c(F)c1-c1c(Cl)c(F)cc2c1C[C@](c1ccccc1)([C@@H]1CCCN1)O2 [Compound A Free form amorphous, 4-((2S,4S)-5-Chloro-6-fluoro-2-phenyl-2-((S)-pyrrolidin-2-yl)-2,3-dihydrobenzofuran-4-yl)-5-fluoro-6-(2-hydroxyethoxy)-N-methylnicotinamide]
- Bulk (XRPD) [1, 14]: No change
- CL color [1, 14]: A
- DP[%] degradation products, Bulk (HPLC) [1, 14]: 2.1%
- Bulk (XRPD) [1, 15]: No change
- CL color [1, 15]: A
- DP[%] degradation products, Bulk (HPLC) [1, 15]: 5.5%
- Bulk (XRPD) [1, 16]: gel
- DP[%] degradation products, Bulk (HPLC) [1, 16]: 15.3%
- XRPD [2, 17]: No change
- Loss on drying by TGA [%] [2, 17]: 2.0% (119° C.)
- XRPD [2, 18]: No change
- Loss on drying by TGA [%] [2, 18]: 2.5% (119° C.)
- Loss on drying by TGA [%] ([2]; Compound A forms, Hygroscopicity, before RH storage): 1.1% (119° C.)
- final pH ([4]; Compound A forms, FaSSIF V2 pH 6.5): (7.98)
- Sol. (solubility) ([4]; Compound A forms, FaSSIF V2 pH 6.5, target concentration 20 mg/10 mL): >2, mg/mL
- final pH ([4]; Compound A forms, FeSSIF V2 pH 5.8): (5.93)
- Sol. (solubility) ([4]; Compound A forms, FeSSIF V2 pH 5.8, target concentration 20 mg/10 mL): >2 mg/mL
- final pH ([4]; Compound A forms, SGF pH 2.0): (2.37)
- Sol. (solubility) ([4]; Compound A forms, SGF pH 2.0, target concentration 20 mg/10 mL): >2, mg/mL
- final pH ([4]; Compound A forms, Water): (9.26)
- Sol. (solubility) ([4]; Compound A forms, Water, target concentration 20 mg/10 mL): 0.28, mg/mL
- final pH ([4]; Compound A forms, pH 1.2, 100 mM HCl): (1.19)
- Sol. (solubility) ([4]; Compound A forms, pH 1.2, 100 mM HCl, target concentration 20 mg/10 mL): >2 mg/mL
- final pH ([4]; Compound A forms, pH 3.0, 50 mM citrate buffer): (3.13)
- Sol. (solubility) ([4]; Compound A forms, pH 3.0, 50 mM citrate buffer, target concentration 20 mg/10 mL): >2, mg/mL
- final pH ([4]; Compound A forms, pH 4.7, 50 mM acetate buffer): (4.89)
- Sol. (solubility) ([4]; Compound A forms, pH 4.7, 50 mM acetate buffer, target concentration 20 mg/10 mL): >2, mg/mL
- final pH ([4]; Compound A forms, pH 6.8, 50 mM phosphate buffer): (6.97)
- final pH ([4]; Compound A forms, pH 6.8, 50 mM phosphate buffer with 50 mM Na taurocholate): (6.87)
- Sol. (solubility) ([4]; Compound A forms, pH 6.8, 50 mM phosphate buffer with 50 mM Na taurocholate, target concentration 20 mg/10 mL): >2, mg/mL
- Sol. (solubility) ([4]; Compound A forms, pH 6.8, 50 mM phosphate buffer, target concentration 20 mg/10 mL): >2, mg/mL
- Bulk amber vial (XRPD) ([5]; Compound A forms, amber vial): No change
- CL color ([5]; Compound A forms, amber vial): A
- DP[%] degradation products, Bulk amber vial (HPLC) ([5]; Compound A forms, amber vial): 1.0%
- Bulk clear vial (XPRD) ([5]; Compound A forms, clear vial): No change
- CL color ([5]; Compound A forms, clear vial): B
- DP[%] degradation products, Bulk clear vial (HPLC) ([5]; Compound A forms, clear vial): 7.4%
